# According to article PMC11317875 (Chemical Science, 2024):
# Like-named read-outs stand apart in the source and are kept apart here.
# Tests used:
# LpqY [1] = biological target: T1, LpqY (Mycolicibacterium thermoresistibile, UniProt G7CES0); assay: Microscale thermophoresis (MST) binding to LpqY; conditions: for fold weaker binding to LpqY: compared with 3F-Tre, 6F-Tre and unmodified trehalose
# Protocol: Microscale Thermophoresis
# Mtr LpqY (2.6 μM) was labelled with the amine reactive RED-NHS dye (3 μM) (second generation,
# NanoTemper Technologies). Following incubation in the dark for 30 min with shaking (300 rpm, room
# temperature), excess dye was removed using a Zeba desalting spin column (7KMWCO).
# analogues were prepared in PBS containing 0.05% Tween 20, and the final concentration of the protein in the
# assay was 500 nM. The samples were loaded into the MonoLith NT.115 standard treated capillaries and
# incubated for 10 min before analysis using the Monolith NT.115 instrument (NanoTemper Technologies) at
# M. bovis BCG = format: cell-based, Mycobacterium bovis BCG; conditions: for new spots in the lipid extracts (TLC): 100 μM probe
# [2] = test system: Mycobacterium tuberculosis; assay: F-Tre uptake at a single time point, HPAEC-PAD of cytosolic extracts; format: cell-based; conditions: for uptake / accumulation in Mtb cells: 0-200 μM probe, ion chromatography of cytosolic extracts; for Peak area of F-Tre peak: HPAEC trace
# [3] = test system: Wild-type Mycobacterium bovis BCG; format: cell-based; conditions: 100 μM probe
# Mtb = format: cell-based, Mycobacterium tuberculosis; conditions: for new spots in the lipid extracts (TLC) / additional band in the TDM region (TLC) / additional lower polarity bands than TMM (TLC): 100 μM probe; for additional band in the TDM region (TLC) / additional lower polarity bands than TMM (TLC): Fig. 8 shows Mtb and M. bovis BCG
# [4] = test system: Mycobacterium tuberculosis; assay: Time dependent F-Tre uptake, HPAEC-PAD of cytosolic extracts; format: cell-based; conditions: for accumulation rate: 100 μM probe, cytosolic extracts; for Mtb cytosolic concentration: 100 µM probe; for saturation of uptake: up to the 8 hour timepoint
# Protocol: lyophilised, resuspended in 1 mL 18 MΩ H2O and filtered through a 10-kDa molecular weight cut-off centrifuge filter (Amicon) and the filtrate analysed. HPAEC-PAD was performed on a Dionex ICS5000+ system with a CarboPac PA-20 analytical column (3 mm x 150 mm) and PA-20 guard column (3 mm x 30 mm) kept at 20 °C. Pulsed amperometry with standard quadrupole waveform was used for detection. The system was equipped with an autosampler that was set up to inject 10 μL sample volumes. Multistep gradient […]
# Chromeleon 7 software (Dionex) was used for data processing.
# Table S11: High performance anion exchange chromatography KOH elution gradient for F-Tre analysis Time (min) KOH conc. (mM) Flow rate (mL/min)
# To quantify uptake, the peak area of 2F-Tre, 3F-Tre and 6F-Tre standards at varying concentrations were measured (Chromeleon 7 software). The peak area was plotted against concentration and simple linear regression was plotted. To determine the concentration of F-Tre analogues in cytosolic samples the area of the peaks of interest was measured (Chromeleon 7 software) and the concentration determined from the calibration […]
# Time dependent F-Tre uptake
# M. tuberculosis was grown to an OD600 of 0.8, then 2F-Tre, 3F-Tre, 4F-Tre or 6F-Tre were added to a final concentration of 100 µM. Controls with the equivalent volume of water or equivalent concentration of trehalose were also prepared. 5 mL aliquots were taken at T=0, 0.5, 1, 1.5, 2, 3, 4, 6, 8 h and the cells were harvested by centrifugation (2,916 x g, 5 min, 22 ° C) and washed (5 mL PBST) three times. The pellets were then resuspended in 1 mL H2O and lysed by mechanical disruption using 0.1 mm zirconia/silica beads (BioSpec Products) on a FastPrep (MP Biomedicals) ribolyser (4 x 45 s cycles with 90 s on ice in between).
# Samples were then centrifuged (16,200 x g, 10 min, 22 °C) and the supernatant collected, lyophilised, resuspended in 1 mL 18 MΩ H2O and filtered through a 10-kDa molecular weight cut-off centrifuge filter (Amicon). The filtrate was analysed by HPAEC-PAD and quantified as described above.
# LpqY [5] = biological target: T1, LpqY; parameters: His-SUMO (N, cleaved yes); made in house; host or cells: E. coli BL21 (DE3); conditions: LpqY-azide-trehalose binding; cited from earlier work
# [6] = test system: Mycobacterium tuberculosis; assay: Ion chromatography of hydrolysed lipid extracts of F-Tre labelled Mtb; format: cell-based
# T1 sequence (G7CES0 29-471): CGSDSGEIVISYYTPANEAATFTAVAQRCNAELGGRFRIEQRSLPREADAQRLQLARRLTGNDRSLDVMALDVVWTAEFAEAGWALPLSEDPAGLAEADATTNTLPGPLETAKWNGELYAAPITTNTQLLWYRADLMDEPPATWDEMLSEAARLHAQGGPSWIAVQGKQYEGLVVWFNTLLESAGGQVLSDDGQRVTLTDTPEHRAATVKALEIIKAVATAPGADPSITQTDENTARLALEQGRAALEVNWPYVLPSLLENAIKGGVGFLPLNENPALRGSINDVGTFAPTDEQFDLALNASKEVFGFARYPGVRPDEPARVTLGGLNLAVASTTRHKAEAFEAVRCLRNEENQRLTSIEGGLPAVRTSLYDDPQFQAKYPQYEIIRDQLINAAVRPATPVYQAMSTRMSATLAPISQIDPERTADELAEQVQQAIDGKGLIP
SMILES,Kd (LpqY [1]) [µM],new spots in the lipid extracts (TLC) (M. bovis BCG),uptake / accumulation in Mtb cells [2],Peak area of F-Tre peak ([2]; Mtb + 25 µM F-Tre) [nC*min],Peak area of F-Tre peak ([2]; Mtb + 50 µM F-Tre) [nC*min],Peak area of F-Tre peak ([2]; Mtb + 100 µM F-Tre) [nC*min],Peak area of F-Tre peak ([2]; Mtb + 200 µM F-Tre) [nC*min],accumulation in cytosolic extracts [3],new spots in the lipid extracts (TLC) (Mtb),additional band in the TDM region (TLC) (Mtb),additional lower polarity bands than TMM (TLC) (Mtb),Mtb cytosolic concentration ([4]; Time 0 h) [µM],Mtb cytosolic concentration ([4]; Time 0.5 h) [µM],Mtb cytosolic concentration ([4]; Time 1 h) [µM],Mtb cytosolic concentration ([4]; Time 1.5 h) [µM],Mtb cytosolic concentration ([4]; Time 2 h) [µM],Mtb cytosolic concentration ([4]; Time 4 h) [µM],Mtb cytosolic concentration ([4]; Time 6 h) [µM],Mtb cytosolic concentration ([4]; Time 8 h) [µM],Kd (LpqY [5]) [µM],also measured
"OC[C@H]1O[C@H](O[C@H]2O[C@H](CO)[C@@H](O)[C@H](F)[C@H]2O)[C@H](O)[C@@H](O)[C@@H]1O [3F-Tre, 3-deoxy-3-fluoro-trehalose]",111 ± 7.1,new spots,significant dose-dependent increase in the accumulation,1.869,3.093,6.779,12.530,accumulate,new spots,one additional lower polarity TDM band,Two additional lower polarity bands than TMM,0 ± 0,250 ± 102,423 ± 256,1030 ± 335,1628 ± 25,3016 ± 102,5872 ± 297,7892 ± 72,,accumulation rate [4]: 0.94 µM/h; increased accumulation compared to 2F- and 6F-Tre ([4]; at 8 hours): ~20%; saturation of uptake [4]: no saturation of uptake
"OC[C@H]1O[C@H](O[C@H]2O[C@H](CF)[C@@H](O)[C@H](O)[C@H]2O)[C@H](O)[C@@H](O)[C@@H]1O [6F-Tre, 6-deoxy-6-fluoro-trehalose]",90.3 ± 0.9,new spots,significant dose-dependent increase in the accumulation,0.144,0.506,0.866,1.604,accumulate,new spots,no additional band in the TDM region,one,0 ± 0,342 ± 16,797 ± 224,1392 ± 83,1804 ± 111,2945 ± 234,4694 ± 237,6843 ± 43,,accumulation rate [4]: 0.82 µM/h; saturation of uptake [4]: no saturation of uptake
"[N-]=[N+]=N[C@@H]1[C@@H](O)[C@@H](O[C@H]2O[C@H](CO)[C@@H](O)[C@H](O)[C@H]2O)O[C@H](CO)[C@H]1O [3Az-Tre, 3-Deoxy-3-azido-trehalose]",,,,,,,,,,,,,,,,,,,,475 ± 17.2,
"OC[C@H]1O[C@H](O[C@H]2O[C@H](CO)[C@@H](O)[C@H](O)[C@H]2F)[C@H](O)[C@@H](O)[C@@H]1O [2F-Tre, 2-deoxy-2-fluoro-trehalose]",770 ± 23.2,new spots,significant dose-dependent increase in the accumulation,0.096,0.206,0.362,1.328,accumulate,new spots,one additional lower polarity TDM band,Two additional lower polarity bands than TMM,0 ± 0,636 ± 33,838 ± 52,1144 ± 250,1717 ± 151,2917 ± 105,4597 ± 236,6639 ± 337,,"fold weaker binding to LpqY (LpqY [1]): ~8 fold; detection in hydrolysed lipid extracts ([6]; 100 µM probe, HPAEC-PAD): detected; Peak area of F-Tre peak in hydrolysed lipid extracts ([6]; Mtb + F-Tre (100 µM)): 0.662 nC*min; accumulation rate [4]: 0.80 µM/h; saturation of uptake [4]: no saturation of uptake"
"[N-]=[N+]=N[C@H]1[C@@H](O[C@H]2O[C@H](CO)[C@@H](O)[C@H](O)[C@H]2O)O[C@H](CO)[C@@H](O)[C@@H]1O [2Az-Tre, 2-Deoxy-2-azido-trehalose]",,,,,,,,,,,,,,,,,,,,1916 ± 7.7,
OC[C@H]1O[C@H](O[C@H]2O[C@H](CO)[C@@H](F)[C@H](O)[C@H]2O)[C@H](O)[C@@H](O)[C@@H]1O [4F-Tre],1480 ± 75.6,No new spots,No uptake,,,,,not,No new spots,,,0,0,0,0,0,0,0,0,,affinity range (LpqY [1]; MST): millimolar range; fold weaker binding to LpqY (LpqY [1]): ~16 fold; presence in trehalose glycolipids (M. bovis BCG): not found in any trehalose glycolipid; presence in trehalose glycolipids (Mtb): not found in any trehalose glycolipid
"[N-]=[N+]=NC[C@H]1O[C@H](O[C@H]2O[C@H](CO)[C@@H](O)[C@H](O)[C@H]2O)[C@H](O)[C@@H](O)[C@@H]1O [6Az-Tre, 6-Deoxy-6-azido-trehalose]",,,,,,,,,,,,,,,,,,,,443 ± 5.3,
"[N-]=[N+]=N[C@H]1[C@H](O)[C@@H](O)[C@@H](O[C@H]2O[C@H](CO)[C@@H](O)[C@H](O)[C@H]2O)O[C@@H]1CO [4Az-Tre, 4-Deoxy-4-azido-trehalose]",,,,,,,,,,,,,,,,,,,,247 ± 7.1,
